Source: PubChem BioAssay (NCI)
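In this assay, cells in 96-well plates receive the compound at five concentrations for 48 hours. Endpoints are linearly interpolated between the surrounding concentrations. GI50 = concentration required for 50% inhibition of growth. TGI denotes the concentration required for complete inhibition of growth.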

Assays:
Assay in all cases: growth of human tumour cells (NCI), 48 h
[1] = tested on: 786-0 renal
[2] = tested on: A498 renal
[3] = tested on: A549 NSCLC
[4] = tested on: ACHN renal
[5] = tested on: BT-549 breast
[6] = tested on: CAKI-1 renal
[7] = tested on: CCRF-CEM leukemia
[8] = tested on: COLO 205 colon
[9] = tested on: DU-145 prostate
[10] = tested on: EKVX NSCLC
[11] = tested on: HCC-2998 colon
[12] = tested on: HCT-116 colon
[13] = tested on: HCT-15 colon
[14] = tested on: HL-60(TB) leukemia
[15] = tested on: HOP-62 NSCLC
[16] = tested on: HOP-92 NSCLC
[17] = tested on: HS 578T breast
[18] = tested on: HT29 colon
[19] = tested on: IGROV1 ovarian
[20] = tested on: K-562 leukemia
[21] = tested on: KM12 colon
[22] = tested on: LOX IMVI melanoma
[23] = tested on: M14 melanoma
[24] = tested on: MALME-3M melanoma
[25] = tested on: MCF7 breast
[26] = tested on: MDA-MB-231 breast
[27] = tested on: MDA-MB-435
[28] = tested on: MOLT-4 leukemia
[29] = tested on: NCI-H226 lung
[30] = tested on: NCI-H23 lung
[31] = tested on: NCI-H460 lung
[32] = tested on: NCI-H522 lung
[33] = tested on: NCI/ADR-RES ovarian
[34] = tested on: OVCAR-3 ovarian
[35] = tested on: OVCAR-4 ovarian
[36] = tested on: OVCAR-5 ovarian
[37] = tested on: OVCAR-8 ovarian
[38] = tested on: PC-3 prostate
[39] = tested on: RPMI-8226 leukemia
[40] = tested on: RXF 393 renal
[41] = tested on: SF-268 CNS
[42] = tested on: SF-295 CNS
[43] = tested on: SF-539 CNS
[44] = tested on: SK-MEL-2 melanoma
[45] = tested on: SK-MEL-28 melanoma
[46] = tested on: SK-MEL-5 melanoma
[47] = tested on: SK-OV-3 ovarian
[48] = tested on: SN12C renal
[49] = tested on: SNB-19 CNS
[50] = tested on: SNB-75 CNS
[51] = tested on: SW-620 colon
[52] = tested on: T-47D breast
[53] = tested on: TK-10 renal
[54] = tested on: U251 CNS
[55] = tested on: UACC-257 melanoma
[56] = tested on: UACC-62 melanoma
[57] = tested on: UO-31 renal

SMILES: COc1cc2c3c(n(CCCNCCNCCN)c(=O)c2cc1OC)-c1cc2c(cc1C3=O)OCO2
- GI50 [1]: 1.91 µM
- TGI [1]: 14.7 µM
- GI50 [2]: 19.1 µM
- TGI [2]: 39.6 µM
- GI50 [3]: 3.55 µM
- TGI [3]: 62.2 µM
- GI50 [4]: 3.3 µM
- TGI [4]: > 53.2 µM
- GI50 [5]: 3.09 µM
- TGI [5]: 15 µM
- GI50 [6]: 3.38 µM
- TGI [6]: 22.9 µM
- GI50 [7]: 0.0835 µM
- TGI [7]: 1.58 µM
- GI50 [8]: 2.58 µM
- TGI [8]: > 100 µM
- GI50 [9]: 1.14 µM
- TGI [9]: 5.82 µM
- GI50 [10]: 1.68 µM
- TGI [10]: 8.1 µM
- GI50 [11]: 3.2 µM
- TGI [11]: 23.8 µM
- GI50 [12]: 0.831 µM
- TGI [12]: 2.19 µM
- GI50 [13]: 11.9 µM
- TGI [13]: > 100 µM
- GI50 [14]: 1.14 µM
- TGI [14]: 15.6 µM
- GI50 [15]: 2.8 µM
- TGI [15]: 20.5 µM
- GI50 [16]: 4.85 µM
- TGI [16]: 37.7 µM
- GI50 [17]: 3.07 µM
- TGI [17]: 15.7 µM
- GI50 [18]: 1.72 µM
- GI50 [19]: 5.21 µM
- TGI [19]: > 100 µM
- GI50 [20]: 1.18 µM
- TGI [20]: 15.9 µM
- GI50 [21]: 3.41 µM
- TGI [21]: 17.8 µM
- GI50 [22]: 2.67 µM
- TGI [22]: 18.3 µM
- GI50 [23]: 3.35 µM
- TGI [23]: 14.7 µM
- GI50 [24]: 0.699 µM
- TGI [24]: 5.75 µM
- GI50 [25]: 0.434 µM
- GI50 [26]: 0.904 µM
- TGI [26]: 6.97 µM
- GI50 [27]: 2.67 µM
- TGI [27]: 10.6 µM
- GI50 [28]: 0.186 µM
- TGI [28]: 1.8 µM
- GI50 [29]: 4.08 µM
- TGI [29]: 21.4 µM
- GI50 [30]: 1.92 µM
- TGI [30]: 8.95 µM
- GI50 [31]: 2.08 µM
- TGI [31]: > 42.6 µM
- GI50 [32]: 2.85 µM
- TGI [32]: > 24.3 µM
- GI50 [33]: > 100 µM
- TGI [33]: > 100 µM
- GI50 [34]: 1.48 µM
- TGI [34]: 6.01 µM
- GI50 [35]: 5.09 µM
- TGI [35]: > 31 µM
- GI50 [36]: 3.61 µM
- TGI [36]: > 25.2 µM
- GI50 [37]: 1.46 µM
- TGI [37]: 11.2 µM
- GI50 [38]: 5.62 µM
- TGI [38]: > 55.5 µM
- GI50 [39]: 1.22 µM
- TGI [39]: 3.44 µM
- GI50 [40]: 5.78 µM
- TGI [40]: > 29.3 µM
- GI50 [41]: 1.72 µM
- TGI [41]: 21.7 µM
- GI50 [42]: 0.522 µM
- TGI [42]: 11.4 µM
- GI50 [43]: 0.551 µM
- TGI [43]: 3.21 µM
- GI50 [44]: 6.94 µM
- TGI [44]: 17.4 µM
- GI50 [45]: 4.65 µM
- TGI [45]: > 39.1 µM
- GI50 [46]: 1.99 µM
- TGI [46]: 9.5 µM
- GI50 [47]: 12.1 µM
- TGI [47]: > 100 µM
- GI50 [48]: 2.5 µM
- TGI [48]: 64.7 µM
- GI50 [49]: 2.12 µM
- TGI [49]: > 100 µM
- GI50 [50]: 0.277 µM
- TGI [50]: 9.47 µM
- GI50 [51]: 2.13 µM
- TGI [51]: 43.8 µM
- GI50 [52]: 2.99 µM
- TGI [52]: > 100 µM
- GI50 [53]: 3.23 µM
- TGI [53]: 22.4 µM
- GI50 [54]: 1.85 µM
- TGI [54]: > 100 µM
- GI50 [55]: 15.2 µM
- TGI [55]: 35.9 µM
- GI50 [56]: 2.34 µM
- TGI [56]: 12.8 µM
- GI50 [57]: 47.8 µM
- TGI [57]: > 100 µM
